± gives the expanded uncertainty stated by the source.
Experiment: xn = mol fraction of the nth substance listed
Details: 101 kPa, Liquid; for viscosity: Falling or rolling sphere viscometry; for mass density: Vibrating tube method

With `CCOS(=O)(=O)[O-].CC[N+]1(C)CCCC1` [1-ethyl-1-methylpyrrolidinium ethyl sulfate] + O the viscosity (313.15 K, x1 = 0.0348) was 1.414 ± 0.23 mPa·s, the viscosity (313.15 K, x1 = 0.0933) was 3.185 ± 0.51 mPa·s and the viscosity (313.15 K, x1 = 0.1312) was 5.031 ± 0.81 mPa·s. For the same compound, the viscosity (313.15 K, x1 = 0.2458) was 10.31 ± 1.6 mPa·s, the viscosity (313.15 K, x1 = 0.3495) was 15.65 ± 2.5 mPa·s and the viscosity (313.15 K, x1 = 0.5281) was 27.98 ± 4.5 mPa·s. For the same compound, the viscosity (313.15 K, x1 = 0.693) was 42.48 ± 6.8 mPa·s, the viscosity (313.15 K, x1 = 0.7794) was 51.33 ± 8.2 mPa·s and the viscosity (313.15 K, x1 = 0.895) was 64.67 ± 10 mPa·s. The viscosity (313.15 K, x1 = 1) was 78.32 ± 13 mPa·s, the mass density (313.15 K, x1 = 0.0348) was 1046.88 ± 0.3 kg/m3 and the mass density (313.15 K, x1 = 0.0933) was 1095.76 ± 0.26 kg/m3. For the same compound, the mass density (313.15 K, x1 = 0.1312) was 1114.51 ± 0.24 kg/m3, the mass density (313.15 K, x1 = 0.2458) was 1144.25 ± 0.31 kg/m3 and the mass density (313.15 K, x1 = 0.3495) was 1155.83 ± 0.43 kg/m3. The mass density (313.15 K, x1 = 0.5281) was 1166.58 ± 0.82 kg/m3, the mass density (313.15 K, x1 = 0.693) was 1171.73 ± 1.3 kg/m3 and the mass density (313.15 K, x1 = 0.7794) was 1172.62 ± 1.6 kg/m3. It also gave a mass density (313.15 K, x1 = 0.895) of 1174.19 ± 2.1 kg/m3, a mass density (313.15 K, x1 = 1) of 1176.31 ± 2.7 kg/m3 and a viscosity (318.15 K, x1 = 0.0348) of 1.27 ± 0.2 mPa·s. It also gave a viscosity (318.15 K, x1 = 0.0933) of 2.8 ± 0.45 mPa·s, a viscosity (318.15 K, x1 = 0.1312) of 4.391 ± 0.7 mPa·s and a viscosity (318.15 K, x1 = 0.2458) of 8.889 ± 1.4 mPa·s. It also gave a viscosity (318.15 K, x1 = 0.3495) of 13.37 ± 2.1 mPa·s, a viscosity (318.15 K, x1 = 0.5281) of 23.71 ± 3.8 mPa·s and a viscosity (318.15 K, x1 = 0.693) of 35.67 ± 5.7 mPa·s. It also gave a viscosity (318.15 K, x1 = 0.7794) of 42.9 ± 6.9 mPa·s, a viscosity (318.15 K, x1 = 0.895) of 53.73 ± 8.6 mPa·s and a viscosity (318.15 K, x1 = 1) of 64.72 ± 10 mPa·s. The mass density (318.15 K, x1 = 0.0348) was 1044.06 ± 0.29 kg/m3, the mass density (318.15 K, x1 = 0.0933) was 1092.47 ± 0.26 kg/m3 and the mass density (318.15 K, x1 = 0.1312) was 1111.07 ± 0.24 kg/m3. It also gave a mass density (318.15 K, x1 = 0.2458) of 1140.77 ± 0.31 kg/m3, a mass density (318.15 K, x1 = 0.3495) of 1152.31 ± 0.43 kg/m3 and a mass density (318.15 K, x1 = 0.5281) of 1163.34 ± 0.82 kg/m3. It also gave a mass density (318.15 K, x1 = 0.693) of 1168.5 ± 1.3 kg/m3, a mass density (318.15 K, x1 = 0.7794) of 1169.22 ± 1.6 kg/m3 and a mass density (318.15 K, x1 = 0.895) of 1171.07 ± 2.1 kg/m3. For the same compound, the mass density (318.15 K, x1 = 1) was 1173.63 ± 2.6 kg/m3, the viscosity (323.15 K, x1 = 0.0348) was 1.149 ± 0.18 mPa·s and the viscosity (323.15 K, x1 = 0.0933) was 2.479 ± 0.4 mPa·s. It also gave a viscosity (323.15 K, x1 = 0.1312) of 3.87 ± 0.62 mPa·s, a viscosity (323.15 K, x1 = 0.2458) of 7.729 ± 1.2 mPa·s and a viscosity (323.15 K, x1 = 0.3495) of 11.6 ± 1.9 mPa·s. It also gave a viscosity (323.15 K, x1 = 0.5281) of 20.29 ± 3.2 mPa·s, a viscosity (323.15 K, x1 = 0.693) of 30.18 ± 4.8 mPa·s and a viscosity (323.15 K, x1 = 0.7794) of 36.07 ± 5.8 mPa·s. For the same compound, the viscosity (323.15 K, x1 = 0.895) was 44.78 ± 7.2 mPa·s, the viscosity (323.15 K, x1 = 1) was 53.51 ± 8.6 mPa·s and the mass density (323.15 K, x1 = 0.0348) was 1041.44 ± 0.29 kg/m3. The mass density (323.15 K, x1 = 0.0933) was 1089.13 ± 0.26 kg/m3, the mass density (323.15 K, x1 = 0.1312) was 1107.59 ± 0.24 kg/m3 and the mass density (323.15 K, x1 = 0.2458) was 1137.17 ± 0.31 kg/m3. It also gave a mass density (323.15 K, x1 = 0.3495) of 1149.28 ± 0.43 kg/m3, a mass density (323.15 K, x1 = 0.5281) of 1160.06 ± 0.81 kg/m3 and a mass density (323.15 K, x1 = 0.693) of 1165.16 ± 1.3 kg/m3. It also gave a mass density (323.15 K, x1 = 0.7794) of 1165.65 ± 1.6 kg/m3, a mass density (323.15 K, x1 = 0.895) of 1167.97 ± 2.1 kg/m3 and a mass density (323.15 K, x1 = 1) of 1170.95 ± 2.6 kg/m3. The viscosity (328.15 K, x1 = 0.0348) was 1.046 ± 0.17 mPa·s, the viscosity (328.15 K, x1 = 0.0933) was 2.211 ± 0.35 mPa·s and the viscosity (328.15 K, x1 = 0.1312) was 3.392 ± 0.54 mPa·s. It also gave a viscosity (328.15 K, x1 = 0.2458) of 6.803 ± 1.1 mPa·s, a viscosity (328.15 K, x1 = 0.3495) of 10.13 ± 1.6 mPa·s and a viscosity (328.15 K, x1 = 0.5281) of 17.54 ± 2.8 mPa·s. For the same compound, the viscosity (328.15 K, x1 = 0.693) was 25.84 ± 4.2 mPa·s, the viscosity (328.15 K, x1 = 0.7794) was 30.7 ± 4.9 mPa·s and the viscosity (328.15 K, x1 = 0.895) was 37.8 ± 6.1 mPa·s. It also gave a viscosity (328.15 K, x1 = 1) of 44.82 ± 7.2 mPa·s, a mass density (328.15 K, x1 = 0.0348) of 1038.48 ± 0.29 kg/m3 and a mass density (328.15 K, x1 = 0.0933) of 1085.76 ± 0.26 kg/m3. It also gave a mass density (328.15 K, x1 = 0.1312) of 1103.99 ± 0.24 kg/m3, a mass density (328.15 K, x1 = 0.2458) of 1133.19 ± 0.31 kg/m3 and a mass density (328.15 K, x1 = 0.3495) of 1145.36 ± 0.42 kg/m3. The mass density (328.15 K, x1 = 0.5281) was 1156.72 ± 0.81 kg/m3, the mass density (328.15 K, x1 = 0.693) was 1161.95 ± 1.3 kg/m3 and the mass density (328.15 K, x1 = 0.7794) was 1162.9 ± 1.6 kg/m3. It also gave a mass density (328.15 K, x1 = 0.895) of 1164.87 ± 2.1 kg/m3, a mass density (328.15 K, x1 = 1) of 1168.27 ± 2.6 kg/m3 and a viscosity (333.15 K, x1 = 0.0348) of 0.992 ± 0.16 mPa·s. The viscosity (333.15 K, x1 = 0.0933) was 1.985 ± 0.32 mPa·s, the viscosity (333.15 K, x1 = 0.1312) was 2.943 ± 0.47 mPa·s and the viscosity (333.15 K, x1 = 0.2458) was 6.014 ± 0.96 mPa·s. It also gave a viscosity (333.15 K, x1 = 0.3495) of 8.896 ± 1.4 mPa·s, a viscosity (333.15 K, x1 = 0.5281) of 15.32 ± 2.5 mPa·s and a viscosity (333.15 K, x1 = 0.693) of 22.4 ± 3.6 mPa·s. For the same compound, the viscosity (333.15 K, x1 = 0.7794) was 26.46 ± 4.2 mPa·s, the viscosity (333.15 K, x1 = 0.895) was 32.29 ± 5.2 mPa·s and the viscosity (333.15 K, x1 = 1) was 37.95 ± 6.1 mPa·s. It also gave a mass density (333.15 K, x1 = 0.0348) of 1035.45 ± 0.29 kg/m3, a mass density (333.15 K, x1 = 0.0933) of 1082.31 ± 0.26 kg/m3 and a mass density (333.15 K, x1 = 0.1312) of 1100.26 ± 0.24 kg/m3. The mass density (333.15 K, x1 = 0.2458) was 1129.65 ± 0.3 kg/m3, the mass density (333.15 K, x1 = 0.3495) was 1142.23 ± 0.42 kg/m3 and the mass density (333.15 K, x1 = 0.5281) was 1153.16 ± 0.8 kg/m3. The mass density (333.15 K, x1 = 0.693) was 1158.04 ± 1.3 kg/m3, the mass density (333.15 K, x1 = 0.7794) was 1160.04 ± 1.6 kg/m3 and the mass density (333.15 K, x1 = 0.895) was 1162.1 ± 2.1 kg/m3. It also gave a mass density (333.15 K, x1 = 1) of 1165.59 ± 2.6 kg/m3, a viscosity (338.15 K, x1 = 0.0348) of 0.983 ± 0.16 mPa·s and a viscosity (338.15 K, x1 = 0.0933) of 1.8 ± 0.29 mPa·s. The viscosity (338.15 K, x1 = 0.1312) was 2.454 ± 0.39 mPa·s, the viscosity (338.15 K, x1 = 0.2458) was 5.34 ± 0.86 mPa·s and the viscosity (338.15 K, x1 = 0.3495) was 7.739 ± 1.2 mPa·s. The viscosity (338.15 K, x1 = 0.5281) was 13.29 ± 2.1 mPa·s, the viscosity (338.15 K, x1 = 0.693) was 19.06 ± 3.1 mPa·s and the viscosity (338.15 K, x1 = 0.7794) was 22.65 ± 3.6 mPa·s. For the same compound, the viscosity (338.15 K, x1 = 0.895) was 27.65 ± 4.4 mPa·s, the viscosity (338.15 K, x1 = 1) was 32.87 ± 5.3 mPa·s and the mass density (338.15 K, x1 = 0.0348) was 1033.08 ± 0.29 kg/m3. For the same compound, the mass density (338.15 K, x1 = 0.0933) was 1079.2 ± 0.26 kg/m3, the mass density (338.15 K, x1 = 0.1312) was 1097.07 ± 0.24 kg/m3 and the mass density (338.15 K, x1 = 0.2458) was 1125.34 ± 0.3 kg/m3. The mass density (338.15 K, x1 = 0.3495) was 1138.14 ± 0.42 kg/m3, the mass density (338.15 K, x1 = 0.5281) was 1150.02 ± 0.79 kg/m3 and the mass density (338.15 K, x1 = 0.693) was 1155.15 ± 1.3 kg/m3. The mass density (338.15 K, x1 = 0.7794) was 1156.48 ± 1.6 kg/m3, the mass density (338.15 K, x1 = 0.895) was 1158.93 ± 2.1 kg/m3 and the mass density (338.15 K, x1 = 1) was 1162.91 ± 2.6 kg/m3. For the same compound, the viscosity (343.15 K, x1 = 0.0348) was 0.976 ± 0.16 mPa·s, the viscosity (343.15 K, x1 = 0.0933) was 1.61 ± 0.26 mPa·s and the viscosity (343.15 K, x1 = 0.1312) was 1.923 ± 0.31 mPa·s. The viscosity (343.15 K, x1 = 0.2458) was 4.202 ± 0.67 mPa·s, the viscosity (343.15 K, x1 = 0.3495) was 6.568 ± 1.1 mPa·s and the viscosity (343.15 K, x1 = 0.5281) was 11.31 ± 1.8 mPa·s. For the same compound, the viscosity (343.15 K, x1 = 0.693) was 16.47 ± 2.6 mPa·s, the viscosity (343.15 K, x1 = 0.7794) was 19.55 ± 3.1 mPa·s and the viscosity (343.15 K, x1 = 0.895) was 24.69 ± 4 mPa·s. For the same compound, the viscosity (343.15 K, x1 = 1) was 29.23 ± 4.7 mPa·s, the mass density (343.15 K, x1 = 0.0348) was 1030.38 ± 0.29 kg/m3 and the mass density (343.15 K, x1 = 0.0933) was 1075.92 ± 0.26 kg/m3. It also gave a mass density (343.15 K, x1 = 0.1312) of 1093.61 ± 0.24 kg/m3, a mass density (343.15 K, x1 = 0.2458) of 1122.44 ± 0.3 kg/m3 and a mass density (343.15 K, x1 = 0.3495) of 1135.34 ± 0.42 kg/m3. The mass density (343.15 K, x1 = 0.5281) was 1146.94 ± 0.79 kg/m3, the mass density (343.15 K, x1 = 0.693) was 1152.01 ± 1.3 kg/m3 and the mass density (343.15 K, x1 = 0.7794) was 1153.23 ± 1.6 kg/m3. For the same compound, the mass density (343.15 K, x1 = 0.895) was 1155.85 ± 2.1 kg/m3 and the mass density (343.15 K, x1 = 1) was 1160.23 ± 2.6 kg/m3.

From the NIST ThermoML archive (doi:10.1016/j.tca.2014.02.019)
